From PubChem BioAssay AID1963831 (Molecular Pharmacology Branch, DTP, NCI, 2024)
Values joined by “and” are separate entries in the source; they are usually repeats but may differ in a detail not shown here. Equal entries are not always repeated.

Tested on: 889142-216-R-J1-PDC complex spheroid viability
Test: Anticancer human tumor 889142-216-R-J1-PDC patient-derived bladder carcinoma cell line growth inhibition [POLQ]
Conditions: for viability, T/C: stronger effect = lower value; active means viability on the fitted dose curve at most 10% of control; inactive means the rest
Description: Multicellular complex tumor spheroid response to Polymerase (POL) inhibitors (novobiocin, ART-558, RP6685) in combination with a variety of drugs and investigational agents in selected tumor cell lines
The POL inhibitors (novobiocin, ART-558, and RP6685) were evaluated both individually and in combination with standard of care and investigational anticancer small molecules within a complex spheroid model of solid tumors. . Complex spheroids include a stromal component modeled by human endothelial cells (HUVEC) and fibroblasts modeled by human mesenchymal stem cells (MSCs). The concentration ranges selected for each drug and investigational agent were based upon clinically achievable concentrations if the clinical Cmax of the agent was known.
Compounds. The drugs and investigational agents: novobiocin (NSC847541), ART-558 (NSC835418), RP-6685 (NSC848927), peposertib (NSC802822), ceralasertib (NSC780249), elimusertib (NSC800525), camonsertib (NSC841442), AZD-1390 (NSC803789), olaparib (NSC753686), talazoparib (NSC767125), rucaparib (NSC756644), sotorasib (NSC818433), MRTX-1133 (NSC836407), SN-38 (NSC673596), topotecan (NSC609699), epotoside (NSC141540), doxorubicin (NSC123127), gemcitabine (NSC613327), 5-fluorouracil (NSC19893), paclitaxel (NSC125973), vemurafenib (NSC761431), MSA-2 (NSC828583), SN-011 (NSC837082), adavosertib (NSC754352), prexasertib (NSC758257), carboplatin (NSC241240) and oxaliplatin (NSC266046), were obtained from the National Cancer Institute (NCI) Developmental Therapeutics Program Chemical Repository (21). The FDA-approved anticancer drug set is available from the Developmental Therapeutics Program at https://dtp.cancer.gov/organization/dscb/obtaining/. […] The stock solutions were prepared in dimethyl sulfoxide (DMSO, Sigma-Aldrich, St. Louis, MO, cat. D2650), except for the platinum compounds which were prepared in saline (Quality Biological, Gaithersburg, MD, cat. 114-055-101), at 800-fold the tested concentration and stored at -70 degrees C prior to their use. All drugs and investigational agents were tested over a range starting from a high concentration at or near the clinical Cmax and decreasing in half-log increments. If the clinical Cmax for an agent had not been determined, the highest concentration tested was 10 microM, except for SN-38, which was tested at a high concentration of 1 microM.
Cell Culture. All cells were maintained in an incubator at 37 degrees C and 5% CO2 with 95% humidity. The PDC lines were cultured according to standard operating procedures established by the NCI PDMR (https://pdmr.cancer.gov). Table 3 of the manuscript, lists the cell lines along with the number of the three cell types plated to form the mct-spheroids and media for tumor cell growth. After thawing, all PDC lines, except 997537-175-T-J1-PDC and 415267-285-R-J2-PDC, were cultured in Matrigel-coated flasks prepared with a working solution of 1X Ham's F-12 nutrient mix, without supplementation (Thermo Fisher Scientific, cat. 11765054), 100 U/mL penicillin-streptomycin (Thermo Fisher Scientific, cat. 15140122), and 2.5% Matrigel (Corning Inc., Corning, NY, cat. 354248) for the first three passages. The two PDC lines 997537-175-T-J1-PDC and 415267-285-R-J2-PDC were cultured on uncoated flasks. The 857933-349-R-J2-PDC line was cultured in 6C/Colon 1B media containing advanced DMEM/F-12 (Thermo Fisher Scientific, cat. 12634028), 10 mM HEPES (Thermo Fisher Scientific, cat. 15630080), 1X GlutaMAX supplement (Thermo Fisher Scientific, cat. 35050061), 0.1 mg/mL primocin (InvivoGen, San Diego, CA, cat. ant-pm-2), 10% defined fetal bovine serum, heat inactivated (HyClone Laboratories Inc., Logan, UT, cat. SH30070.03HI), 50% L-WRN conditioned media (ATCC, cat. CRL-3276), 1.25 mM N-Acetyl-L-cysteine (Sigma-Aldrich, cat. A9165), 10 mM nicotinamide (Sigma-Aldrich, cat. N0636), 1X B-27 supplement (Thermo Fisher Scientific, cat. 17504044), 1X N-2 supplement (Thermo Fisher Scientific, cat. […]
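Further: spheroids exposed to compounds for seven days.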

COc1cc2cc(C(=O)CCC(=O)O)sc2cc1OC + COC1C(OC(N)=O)C(O)C(Oc2ccc3c(O)c(NC(=O)c4ccc(O)c(CC=C(C)C)c4)c(=O)oc3c2C)OC1(C)C
> 10 µM: IC50 (curve of first compound, second compound 0.0316 µM) | IC50 (curve of first compound, second compound 0.1 µM) | IC50 (curve of first compound, second compound 0.316 µM) | IC50 (curve of first compound, second compound 1 µM) | IC50 (curve of first compound, second compound 3.16 µM) | IC50 (curve of first compound, second compound 10 µM)
inactive: viability, T/C (second compound 0.0316 µM, first compound 0.0316 µM) 95.1% | viability, T/C (second compound 0.0316 µM, first compound 0.1 µM) 93% | viability, T/C (second compound 0.0316 µM, first compound 0.316 µM) 82.4% | viability, T/C (second compound 0.0316 µM, first compound 1 µM) 114% | viability, T/C (second compound 0.0316 µM, first compound 3.16 µM) 109% | viability, T/C (second compound 0.0316 µM, first compound 10 µM) 70% | viability, T/C (second compound 0.1 µM, first compound 0.0316 µM) 103% | viability, T/C (second compound 0.1 µM, first compound 0.1 µM) 106% | viability, T/C (second compound 0.1 µM, first compound 0.316 µM) 102% | viability, T/C (second compound 0.1 µM, first compound 1 µM) 96.9% | viability, T/C (second compound 0.1 µM, first compound 3.16 µM) 92.5% | viability, T/C (second compound 0.1 µM, first compound 10 µM) 81.1% | viability, T/C (second compound 0.316 µM, first compound 0.0316 µM) 118% | viability, T/C (second compound 0.316 µM, first compound 0.1 µM) 120% | viability, T/C (second compound 0.316 µM, first compound 0.316 µM) 116% | viability, T/C (second compound 0.316 µM, first compound 1 µM) 90.6% | viability, T/C (second compound 0.316 µM, first compound 3.16 µM) 110% | viability, T/C (second compound 0.316 µM, first compound 10 µM) 83.6% | viability, T/C (second compound 1 µM, first compound 0.0316 µM) 113% | viability, T/C (second compound 1 µM, first compound 0.1 µM) 106% | viability, T/C (second compound 1 µM, first compound 0.316 µM) 121% | viability, T/C (second compound 1 µM, first compound 1 µM) 113% | viability, T/C (second compound 1 µM, first compound 3.16 µM) 118% | viability, T/C (second compound 1 µM, first compound 10 µM) 83.9% | viability, T/C (second compound 3.16 µM, first compound 0.0316 µM) 91.2% | viability, T/C (second compound 3.16 µM, first compound 0.1 µM) 113% | viability, T/C (second compound 3.16 µM, first compound 0.316 µM) 103% | viability, T/C (second compound 3.16 µM, first compound 1 µM) 102% | viability, T/C (second compound 3.16 µM, first compound 3.16 µM) 111% | viability, T/C (second compound 3.16 µM, first compound 10 µM) 101% | viability, T/C (second compound 10 µM, first compound 0.0316 µM) 103% | viability, T/C (second compound 10 µM, first compound 0.1 µM) 93.2% | viability, T/C (second compound 10 µM, first compound 0.316 µM) 111% | viability, T/C (second compound 10 µM, first compound 1 µM) 92.8% | viability, T/C (second compound 10 µM, first compound 3.16 µM) 103% | viability, T/C (second compound 10 µM, first compound 10 µM) 88.2%

Cn1ncnc1[C@H]1c2n[nH]c(=O)c3cc(F)cc(c23)N[C@@H]1c1ccc(F)cc1
> 0.1 µM: IC50 (curve of compound)
inactive: viability, T/C (compound 0.000316 µM) 116% and 120% and 92.5% | viability, T/C (compound 0.001 µM) 81.2% and 90.7% and 78% | viability, T/C (compound 0.00316 µM) 84.9% and 99.1% and 83.2% | viability, T/C (compound 0.01 µM) 93.2% and 89.5% and 78.9% | viability, T/C (compound 0.0316 µM) 87.3% and 104% and 84.8% | viability, T/C (compound 0.1 µM) 76.4% and 64.8% and 72.8%

CCc1cc2c(N3CCc4c(cc(Cn5ccnc5)cc4-c4cn(C)nc4C(F)(F)F)C3=O)ccnc2c(OC)n1
> 10 µM: IC50 (curve of compound)
inactive: viability, T/C (compound 0.0316 µM) 127% and 103% and 138% | viability, T/C (compound 0.1 µM) 115% and 101% and 105% | viability, T/C (compound 0.316 µM) 123% and 106% (2×) | viability, T/C (compound 1 µM) 116% and 126% and 105% | viability, T/C (compound 3.16 µM) 116% and 111% and 93.8% | viability, T/C (compound 10 µM) 83.1% and 86.1% and 71.5%

O=c1[nH]cc(F)c(=O)[nH]1
inactive: viability, T/C (compound 0.0316 µM) 97% and 89.8% and 113% | viability, T/C (compound 0.1 µM) 93.8% and 95.1% and 88.7% | viability, T/C (compound 0.316 µM) 106% and 83.7% and 94.8% | viability, T/C (compound 1 µM) 94.5% and 79.1% and 72.9% | viability, T/C (compound 3.16 µM) 76.2% and 61.7% and 80.9% | viability, T/C (compound 10 µM) 67.3% and 59.5% and 77.3%
> 10 µM: IC50 (curve of compound)
